Data: patent US12662479B2 (Foghorn Therapeutics Inc., priority 2020, dated 2026)

Tests used:
[1] = molecular target: T1, HiBit-BRG1 fusion protein (Homo sapiens, UniProt P51532); assay: HiBiT-BRG1 cell-based degradation assay (Nano-Glo HiBiT Lytic Detection, 24 h); settings: HeLa cells expressing HiBit-BRG1 and LgBit; for DC50: read-out: BRG1 HiBit Degradation IC50; for Dmax: HeLa, top dose 30 μM, read-out: BRG1 HiBit Degradation Maximum measured
T1 construct: expressed in transfected cells
Method in brief: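 Stable HeLa line expressing HiBiT-BRG1 and LgBiT, seeded at 5000 cells/well; luminescence read after lytic Nano-Glo HiBiT reagent and 10 min shaking at RT. % degradation normalised between DMSO (high control) and 2 μM reference BRM/BRG1 degrader (low control).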

HiBit-BRM fusion protein = molecular target: T2, HiBit-BRM fusion protein (Homo sapiens, UniProt P51531); assay: HiBiT-BRM cell-based degradation assay (Nano-Glo HiBiT Lytic Detection, 24 h); settings: HeLa cells expressing HiBiT-BRM; for DC50: read-out: BRM HiBit Degradation IC50; for BRM HiBit Degradation Maximum measured: top dose 30 μM
T2 construct: expressed in transfected cells
Method in brief: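 Luminescence from reconstituted NanoBiT luciferase in lysed HeLa HiBiT-BRM cells served as the measure of remaining BRM after 24 h treatment. Compounds were tested from 30 μM final downward in 3-fold steps. DMSO and 2 μM of a standard BRM/BRG1 degrader defined the scale limits.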

T1 sequence (P51532 whole entry, the tested form may be a part): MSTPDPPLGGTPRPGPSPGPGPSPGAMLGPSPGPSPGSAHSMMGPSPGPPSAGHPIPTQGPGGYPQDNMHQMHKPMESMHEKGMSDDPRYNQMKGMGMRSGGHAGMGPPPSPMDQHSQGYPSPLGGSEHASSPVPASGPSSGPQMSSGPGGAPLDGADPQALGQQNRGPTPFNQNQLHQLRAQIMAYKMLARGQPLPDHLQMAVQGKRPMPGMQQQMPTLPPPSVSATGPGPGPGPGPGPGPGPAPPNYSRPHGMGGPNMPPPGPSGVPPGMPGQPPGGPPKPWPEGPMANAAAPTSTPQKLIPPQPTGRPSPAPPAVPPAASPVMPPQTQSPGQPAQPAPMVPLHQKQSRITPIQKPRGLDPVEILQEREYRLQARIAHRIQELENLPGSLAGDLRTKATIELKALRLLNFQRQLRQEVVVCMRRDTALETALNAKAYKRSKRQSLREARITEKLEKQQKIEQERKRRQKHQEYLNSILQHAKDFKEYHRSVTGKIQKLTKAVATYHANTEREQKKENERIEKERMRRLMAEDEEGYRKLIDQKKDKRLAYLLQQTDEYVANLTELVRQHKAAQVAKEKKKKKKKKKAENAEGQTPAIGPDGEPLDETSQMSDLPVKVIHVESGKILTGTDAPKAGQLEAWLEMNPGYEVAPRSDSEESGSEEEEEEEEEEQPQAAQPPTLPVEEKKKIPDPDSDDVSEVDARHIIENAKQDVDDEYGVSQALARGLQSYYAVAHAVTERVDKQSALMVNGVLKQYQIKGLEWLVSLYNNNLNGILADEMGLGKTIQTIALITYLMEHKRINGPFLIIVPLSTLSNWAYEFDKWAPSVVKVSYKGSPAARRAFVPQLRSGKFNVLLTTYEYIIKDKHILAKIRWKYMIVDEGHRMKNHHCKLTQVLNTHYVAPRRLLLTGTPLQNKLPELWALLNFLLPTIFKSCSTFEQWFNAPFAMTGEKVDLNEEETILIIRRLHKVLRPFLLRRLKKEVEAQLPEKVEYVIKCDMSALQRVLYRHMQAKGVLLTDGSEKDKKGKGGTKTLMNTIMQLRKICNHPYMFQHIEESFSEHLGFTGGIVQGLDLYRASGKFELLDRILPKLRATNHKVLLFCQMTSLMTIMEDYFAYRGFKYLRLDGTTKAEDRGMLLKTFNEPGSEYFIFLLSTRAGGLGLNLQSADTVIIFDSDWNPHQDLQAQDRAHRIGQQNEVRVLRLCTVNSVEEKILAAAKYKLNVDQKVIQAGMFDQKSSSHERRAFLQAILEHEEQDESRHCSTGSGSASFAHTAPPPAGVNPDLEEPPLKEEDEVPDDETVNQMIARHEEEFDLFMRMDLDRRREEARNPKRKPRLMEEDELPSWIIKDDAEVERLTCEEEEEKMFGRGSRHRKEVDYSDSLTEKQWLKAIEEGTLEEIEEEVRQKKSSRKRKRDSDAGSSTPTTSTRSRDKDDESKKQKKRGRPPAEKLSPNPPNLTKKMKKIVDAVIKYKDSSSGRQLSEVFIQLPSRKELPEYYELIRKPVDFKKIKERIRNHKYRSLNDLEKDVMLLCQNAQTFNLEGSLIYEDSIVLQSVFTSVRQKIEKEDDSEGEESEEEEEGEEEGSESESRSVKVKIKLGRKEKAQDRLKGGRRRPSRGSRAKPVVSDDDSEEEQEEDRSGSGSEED
T2 sequence (P51531 whole entry, the tested form may be a part): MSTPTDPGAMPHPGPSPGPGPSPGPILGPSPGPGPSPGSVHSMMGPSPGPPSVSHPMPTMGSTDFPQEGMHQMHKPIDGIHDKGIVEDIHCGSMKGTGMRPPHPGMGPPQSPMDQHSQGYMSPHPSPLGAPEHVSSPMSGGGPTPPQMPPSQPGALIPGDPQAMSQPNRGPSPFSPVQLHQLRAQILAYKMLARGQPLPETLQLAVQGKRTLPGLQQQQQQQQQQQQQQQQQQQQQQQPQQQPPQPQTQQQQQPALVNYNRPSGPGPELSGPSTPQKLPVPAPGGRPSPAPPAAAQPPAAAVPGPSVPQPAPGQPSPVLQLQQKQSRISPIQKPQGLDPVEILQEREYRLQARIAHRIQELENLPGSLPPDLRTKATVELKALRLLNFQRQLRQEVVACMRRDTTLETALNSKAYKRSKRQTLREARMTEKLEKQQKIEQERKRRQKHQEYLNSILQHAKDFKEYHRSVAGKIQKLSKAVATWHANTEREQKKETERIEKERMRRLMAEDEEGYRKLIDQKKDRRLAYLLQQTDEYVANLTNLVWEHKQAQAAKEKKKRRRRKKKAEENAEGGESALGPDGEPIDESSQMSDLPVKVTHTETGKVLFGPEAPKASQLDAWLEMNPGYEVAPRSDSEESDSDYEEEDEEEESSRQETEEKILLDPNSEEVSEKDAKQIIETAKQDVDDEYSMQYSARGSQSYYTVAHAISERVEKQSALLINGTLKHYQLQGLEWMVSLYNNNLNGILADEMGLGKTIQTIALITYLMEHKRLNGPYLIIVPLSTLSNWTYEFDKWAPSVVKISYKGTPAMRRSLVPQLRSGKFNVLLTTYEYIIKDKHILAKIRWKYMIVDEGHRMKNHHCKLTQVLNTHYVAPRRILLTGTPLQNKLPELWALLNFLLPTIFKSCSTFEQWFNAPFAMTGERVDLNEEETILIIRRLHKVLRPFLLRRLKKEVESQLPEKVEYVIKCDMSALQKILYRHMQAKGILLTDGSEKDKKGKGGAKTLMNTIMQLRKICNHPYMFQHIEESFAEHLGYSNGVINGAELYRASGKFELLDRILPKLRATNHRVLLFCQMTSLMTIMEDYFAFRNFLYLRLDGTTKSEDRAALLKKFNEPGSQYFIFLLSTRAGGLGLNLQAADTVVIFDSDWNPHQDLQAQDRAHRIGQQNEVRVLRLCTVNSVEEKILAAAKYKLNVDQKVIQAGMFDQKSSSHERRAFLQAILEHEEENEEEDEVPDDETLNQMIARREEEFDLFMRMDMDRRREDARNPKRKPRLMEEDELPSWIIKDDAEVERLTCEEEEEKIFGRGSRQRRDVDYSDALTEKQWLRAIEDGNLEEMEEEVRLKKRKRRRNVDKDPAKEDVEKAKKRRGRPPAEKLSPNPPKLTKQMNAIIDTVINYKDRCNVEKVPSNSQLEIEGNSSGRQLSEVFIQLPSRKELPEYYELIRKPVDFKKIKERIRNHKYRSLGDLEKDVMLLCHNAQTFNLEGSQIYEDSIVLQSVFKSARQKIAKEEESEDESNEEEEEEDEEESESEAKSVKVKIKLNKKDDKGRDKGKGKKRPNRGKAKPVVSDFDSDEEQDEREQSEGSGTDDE

Structure (SMILES) | DC50 [1] | Dmax [1] | DC50 (HiBit-BRM fusion protein) | BRM HiBit Degradation Maximum measured (HiBit-BRM fusion protein)
CS(=O)(=O)n1ccc(C(=O)NCC(=O)Nc2nc(-c3cccc(-c4ccnc(OCCNC(=O)CCCCCCCCCCNc5cccc6c5C(=O)N(C5CCC(=O)NC5=O)C6=O)c4)c3)cs2)c1 (stereo not shown) [Compound 82, N-[2-[[4-[3-[2-[2-[11-[[2-(2,6-dioxo-3-piperidyl)-1,3-dioxo-isoindolin-4-yl]amino]undecanoylamino]ethoxy]-4-pyridyl]phenyl]thiazol-2-yl]amino]-2-oxo-ethyl]-1-methylsulfonylpyrrole-3-carboxamide] | > 10 µM | < 50% | > 10 µM | C (‘C’ = Maximum degradation <50%)
CS(=O)(=O)n1ccc(C(=O)NCC(=O)Nc2nc(-c3cccc(-c4ccnc(C5(C(=O)NCCOCCOCCNC(=O)COc6cccc7c6C(=O)N(C6CCC(=O)NC6=O)C7=O)CC5)c4)c3)cs2)c1 (stereo not shown) [Compound 128] | > 10 µM | < 50% | > 10 µM | C (‘C’ = Maximum degradation <50%)
Cc1ncsc1-c1ccc(CNC(=O)[C@@H]2C[C@@H](O)CN2C(=O)[C@@H](NC(=O)CCC(=O)N2CCN(c3cc(-c4cccc(-c5csc(NC(=O)CNC(=O)c6ccn(S(C)(=O)=O)c6)n5)c4)ccn3)CC2)C(C)(C)C)cc1 [Compound 74, N-[2-[[4-[3-[2-[4-[4-[[(1S)-1-[(2S,4R)-4-hydroxy-2-[[4-(4-methylthiazol-5-yl)phenyl]methylcarbamoyl]pyrrolidine-1-carbonyl]-2,2-dimethyl-propyl]amino]-4-oxo-butanoyl]piperazin-1-yl]-4-pyridyl]phenyl]thiazol-2-yl]amino]-2-oxo-ethyl]-1-methylsulfonyl-pyrrole-3-carboxamide] | > 10 µM | < 50% | > 10 µM | C (‘C’ = Maximum degradation <50%)
Cc1ncsc1-c1ccc(CNC(=O)[C@@H]2C[C@@H](O)CN2C(=O)[C@@H](NC(=O)CCCCC(=O)NCc2ccc(COC[C@H](NC(=O)c3ccn(S(C)(=O)=O)c3)C(=O)Nc3nc(-c4ccccc4)cs3)cc2)C(C)(C)C)cc1 [Compound 208, N-[(2S)-1-[(2S,4R)-4-hydroxy-2-([[4-(4-methyl-1,3-thiazol-5-yl)phenyl]methyl]carbamoyl)pyrrolidin-1-yl]-3,3-dimethyl-1-oxobutan-2-yl]-N′-[(4-[[(2S)-2-[(1-methanesulfonylpyrrol-3-yl)formamido]-2-[(4-phenyl-1,3-thiazol-2-yl)carbamoyl]ethoxy]methyl]phenyl)methyl]hexanediamide] | > 10 µM | < 50% | > 10 µM | C (‘C’ = Maximum degradation <50%)
Cc1ncsc1-c1ccc(CNC(=O)[C@@H]2C[C@@H](O)CN2C(=O)[C@@H](NC(=O)COCCOCC(=O)NCc2cccc(-c3cccc(-c4csc(NC(=O)CNC(=O)c5ccn(S(C)(=O)=O)c5)n4)c3)c2)C(C)(C)C)cc1 [Compound 44, N-(2-((4-(3′-((S)-12-((2S,4R)-4-hydroxy-2-((4-(4-methylthiazol-5-yl)benzyl)carbamoyl)pyrrolidine-1-carbonyl)-13,13-dimethyl-3,10-dioxo-5,8-dioxa-2,11-diazatetradecyl)-[1,1′-biphenyl]-3-yl)thiazol-2-yl)amino)-2-oxoethyl)-1-(methylsulfonyl)-1H-pyrrole-3-carboxamide] | 1 to 10 µM | > 75% | 1 to 10 µM | B (‘B’ = Maximum degradation ≥50% and ≤75%)
CS(=O)(=O)n1ccc(C(=O)N[C@@H](CCCCNC(=O)C2CCN(CCOc3ccc4c(c3)C(=O)N(C3CCC(=O)NC3=O)C4=O)CC2)C(=O)Nc2nc(-c3ccccc3)cs2)c1 (stereo partly shown) [Compound 269] | > 10 µM | < 50% | > 10 µM | C (‘C’ = Maximum degradation <50%)
Cc1ncsc1-c1ccc(CNC(=O)[C@@H]2C[C@@H](O)CN2C(=O)[C@@H](NC(=O)CCCCCCCCCC(=O)NCc2cccc(-c3cccc(-c4csc(NC(=O)CNC(=O)c5ccn(S(C)(=O)=O)c5)n4)c3)c2)C(C)(C)C)cc1 [Compound 65, N1-((S)-1-((2S,4R)-4-hydroxy-2-((4-(4-methylthiazol-5-yl)benzyl)carbamoyl)pyrrolidin-1-yl)-3,3-dimethyl-1-oxobutan-2-yl)-N11-((3′-(2-(2-(1-(methylsulfonyl)-1H-pyrrole-3-carboxamido)acetamido)thiazol-4-yl)-[1,1′-biphenyl]-3-yl)methyl)undecanediamide] | < 0.1 µM | > 75% | < 0.1 µM | A (‘A’ = Maximum degradation >75%)
CS(=O)(=O)n1ccc(C(=O)N[C@@H](CCCCNC(=O)CCN2CC3(C2)CN(c2ccc4c(c2)C(=O)N(C2CCC(=O)NC2=O)C4=O)C3)C(=O)Nc2nc(-c3ccccc3)cs2)c1 (stereo partly drawn) [Compound 294, (2S)-6-(3-[6-[2-(2,6-dioxopiperidin-3-yl)-1,3-dioxoisoindol-5-yl]-2,6-diazaspiro[3.3]heptan-2-yl]propanamido)-2-[(1-methanesulfonylpyrrol-3-yl)formamido]-N-(4-phenyl-1,3-thiazol-2-yl)hexanamide] | > 10 µM | < 50% | > 10 µM | C (‘C’ = Maximum degradation <50%)
Cc1ncsc1-c1ccc(CNC(=O)[C@@H]2C[C@@H](O)CN2C(=O)[C@@H](NC(=O)COCCOCCNC(=O)C2(c3cc(-c4cccc(-c5csc(NC(=O)CNC(=O)c6ccn(S(C)(=O)=O)c6)n5)c4)ccn3)CC2)C(C)(C)C)cc1 [Compound 108, N-[2-[[4-[3-[2-[1-[2-[2-[2-[[(1S)-1-[(2S,4R)-4-hydroxy-2-[[4-(4-methylthiazol-5-yl)phenyl]methylcarbamoyl]pyrrolidine-1-carbonyl]-2,2-dimethyl-propyl]amino]-2-oxo-ethoxy]ethoxy]ethylcarbamoyl]cyclopropyl]-4-pyridyl]phenyl]thiazol-2-yl]amino]-2-oxo-ethyl]-1-methylsulfonyl-pyrrole-3-carboxamide] | 0.1 to 1 µM | > 75% | 0.1 to 1 µM | A (‘A’ = Maximum degradation >75%)
CS(=O)(=O)n1ccc(C(=O)N[C@@H](CCOCCCC(=O)NCCC2CCN(c3ccc4c(c3)C(=O)N(C3CCC(=O)NC3=O)C4=O)CC2)C(=O)Nc2nc(-c3ccccc3)cs2)c1 (stereo partly drawn) [Compound 277, (2S)-4-[3-[(2-[1-[2-(2,6-dioxopiperidin-3-yl)-1,3-dioxoisoindol-5-yl]piperidin-4-yl]ethyl)carbamoyl]propoxy]-2-[(1-methanesulfonylpyrrol-3-yl)formamido]-N-(4-phenyl-1,3-thiazol-2-yl)butanamide] | > 10 µM | < 50% | > 10 µM | C (‘C’ = Maximum degradation <50%)
Cc1ncsc1-c1ccc(CNC(=O)[C@@H]2C[C@@H](O)CN2C(=O)[C@@H](NC(=O)CCCC(=O)N2CCN(c3cc(-c4cccc(-c5csc(NC(=O)CNC(=O)c6ccn(S(C)(=O)=O)c6)n5)c4)ccn3)CC2)C(C)(C)C)cc1 [Compound 79, N-(2-((4-(3-(2-(4-(5-(((S)-1-((2S,4R)-4-hydroxy-2-((4-(4-methylthiazol-5-yl)benzyl)carbamoyl)pyrrolidin-1-yl)-3,3-dimethyl-1-oxobutan-2-yl)amino)-5-oxopentanoyl)piperazin-1-yl)pyridin-4-yl)phenyl)thiazol-2-yl)amino)-2-oxoethyl)-1-(methylsulfonyl)-1H-pyrrole-3-carboxamide] | > 10 µM | < 50% | > 10 µM | C (‘C’ = Maximum degradation <50%)
CS(=O)(=O)n1ccc(C(=O)NCC(=O)Nc2nc(-c3cccc(-c4ccnc(OCCNC(=O)CCOCCOCCNc5ccc6c(c5)C(=O)N(C5CCC(=O)NC5=O)C6=O)c4)c3)cs2)c1 (stereo not shown) [Compound 83, N-[2-[[4-[3-[2-[2-[3-[2-[2-[[2-(2,6-dioxo-3-piperidyl)-1,3-dioxoisoindolin-5-yl]amino]ethoxy]ethoxy]propanoylamino]ethoxy]-4-pyridyl]phenyl]thiazol-2-yl]amino]-2-oxo-ethyl]-1-methylsulfonyl-pyrrole-3-carboxamide] | > 10 µM | < 50% | > 10 µM | C (‘C’ = Maximum degradation <50%)
Cc1ncsc1-c1ccc(CNC(=O)[C@H]2C[C@@H](O)CN2C(=O)[C@@H](NC(=O)COCCOCCOCCNC(=O)CCCOCC[C@H](NC(=O)c2ccn(S(C)(=O)=O)c2)C(=O)Nc2nc(-c3ccccc3)cs2)C(C)(C)C)cc1 [Compound 250, (2R,4R)-4-hydroxy-1-[(2S)-2-(2-[2-[2-(2-[4-[(3S)-3-[(1-methanesulfonylpyrrol-3-yl)formamido]-3-[(4-phenyl-1,3-thiazol-2-yl)carbamoyl]propoxy]butanamido]ethoxy)ethoxy]ethoxy]acetamido)-3,3-dimethylbutanoyl]-N-[[4-(4-methyl-1,3-thiazol-5-yl)phenyl]methyl]pyrrolidine-2-carboxamide] | > 10 µM | < 50% | > 10 µM | C (‘C’ = Maximum degradation <50%)
